In patent EP1053750A1, “Use of proteasome-inhibitor for the induction of programmed cell death (apoptosis)” (Max-Planck-Gesellschaft zur Förderung der Wissenschaften …, priority 1999, dated 2000):
Peptide text beside a SMILES is read from it. * marks the point of attachment. Cbz = O=C(OCc1ccccc1)*; OtBu = CC(C)(C)O*

Assays:
[1] = test system: HUE cells; assay: DNA fragmentation assay; assay type: cell-based, human; details: 10 µM PSI for 18 hours, agarose gel
Experimental: • a. Analysis of PSI-induced DNA fragmentation by agarose gel electrophoresis. […] Neither caspase inhibitor (Ac-YVAD-CHO 250 µM, lane 4; Ac-DEVD-CHO 250 µM, lane 5) nor DMSO (lane 6) induced the characteristic pattern of DNA fragmentation. M1 and M2: DNA size markers (kb). • b. Immunoblot analysis of HUE cell lysates after incubation with PSI. […] Equal loading was controlled by using an antibody directed against GAPDH enzyme.
HUE cells which had been plated at 20000 cells/cm^2 24 hours before the assay, were treated with 250 µM of the caspase inhibitors Ac-YVAD-CHO or Ac-DEVO-CHO (Peptide Institute, Osaka, Japan) or the equivalent volume of dimethylsulfoxide (DMSO) for 1 h prior to additon of the proteasomal inhibitors. Incubation of the cells was continued for a further 18 h and the extent of DNA fragmentation was analyzed as previously described with some minor modifications (Hockenberry et al., Nature 348 (1990), 334 - 336). Briefly, both the floating cells and the adherent cells which were detached by trypsinization, were lysed in a solution containing 0.5% Triton X100, 10 mM EDTA and 10 mM Tris-HCL pH 7.5 for 30 min on ice. To separate the intact chromatin from the oligonucleosomal fragments, the lysate was centrifuged at 13000 g for 10 min at 4°C and the resulting supernatant was sequentially extracted with phenol followed by phenol/chloroform/iso-amylalcohol (25:24:1; v/v/v). Low molecular weight DNA was precipitated by the addition of 0.5 vol 7 M ammonium acetate and 2.5 vol ice-cold ethanol. The precipitate was washed in 75% ethanol, dissolved in TE-buffer, containing RNase A (20 µg/ml; Boehringer Mannheim), incubated for 30 min at 37°C and subjected to electrophoresis on 1.5% agarose gels.

[2] = test system: caspase-3 like activity; assay: Caspase activity in lysates of treated HUE cells, substrate Ac-DEVD-AMC; assay type: cell-based, human; details: HUE cell lysates, 50 µM
Experimental: Subconfluent endothelial cells were incubated with the inhibitors for the indicated times, lysed and caspase activities determined using Ac-DEVD-AMC for caspase-3-like enzymes and Ac-YVAD-AMC for caspase-1-like activities as described in the Material and Methods section (PSI, filled circles; LLnM, open square; E64, open triangles; Leupeptin, filled triangles; Pepstatin, filled squares). The specific caspase activities are shown as pmol of substrate hydrolyzed/min per µg of protein.
HUE cells (8 x 10^5) were plated onto 10 cm plastic dishes, allowed to attach overnight, and inhibitors were added to a final concentration of 50 µM for the times indicated in Fig. 4. DMSO, which served as the vehicle, was added to a final concentration of 0.1%. Floating and adherent cells were then harvested, lysed in Buffer I (1% Triton X100, 10 mM KCl, 20 mM HEPES pH 7.4, 1.5 mM MgCl2, 0.2 mM EGTA, 1 mM PMSF), snap frozen in liquid nitrogen and stored at -80°C until required. Lysates were centrifuged at 13000 g for 5 min at 4°C, the supernatants collected and protein concentrations determined using the BCA assay. […] Specific activity was expressed as pmol AMC liberated per min and per µg protein in comparison to a standard curve calculated from the amount of free AMC (SIGMA, Deisenhofen, Germany).

[3] = test system: subconfluent primary BAE cells; assay: Apoptotic morphology (phase contrast, Hoechst 33342), BAE cells; assay type: cell-based, bovine; details: subconfluent BAE cells; 50 µM for 15 - 24 h, or 10 µM after 48 hours

Q: With `CC[C@H](C)[C@H](NC(=O)OCc1ccccc1)C(=O)N[C@@H](CCC(=O)OC(C)(C)C)C(=O)N[C@@H](C)C(=O)N[C@H](C=O)CC(C)C` [PSI, carbobenzoxy-L-isoleucyl-y-t-butyl-L-glutamyl-L-alanyl-L-leucinal] (Cbz-IE(OtBu)AL-aldehyde) as the compound, how does the “DNA fragmentation (DNA ladder formation)” value [1] read?
A: induced DNA ladder formation

Q: What about the “time of maximum of Ac-DEVD-AMC cleavage” value [2] of the same compound?
A: 15 h

Q: What about the “morphological changes associated with programmed cell death” value [3] of the same compound?
A: cytoplasmic shrinkage and bleb formation as well as extensive nuclear condensation and fragmentation
